Literature values as cited in US20110252694A1, “COMPOSITIONS FOR DRIP FUMIGATION” (priority 2010, published 2011).

Tests used:
[1] = test system: weeds, nematodes, and soil pathogens; details: compared with methyl bromide
plant = details: when used in effective concentrations

In the case of `CI` [Methyl Iodide, methyl iodide], the “combating weeds, nematodes, and soil pathogens” value [1] is given as “equal to or better than methyl bromide” and the plant toxicity (plant) is given as “does not result in plant toxicity”.
